Assay results as given in US10434097B1, “Methods and compositions for treating hearing disorders” (GATEWAY BIOTECHNOLOGY, INC., priority 2015, dated 2019).

Experiments:
[1] = system: mice; assay: Salicylate-induced tinnitus model, SBAD Go/No-Go (Example 12); assay type: in vivo; settings: before or after drug injections, at these dosages
Text: The SBAD method with Go/No-Go paradigm was used for behavioral test in mice. For “Go” trial animals were trained to move from one compartment to another upon presentation of a sound. For “No-Go” trial animals were trained to stay in the compartment. Otherwise they received a shock. “Go” paradigm was used to monitor motor, motivation, and memory functions while “No-Go” was used to detect tinnitus-like behavior. A baseline was established for each mouse over three consecutive days. The same SBAD method was repeated one hour after intraperitoneal injections of sodium salicylate (400 mg/kg), and two hours after TET injections.

[2] = system: C57BL/6J mice; assay: Rodent avoidance (shuttle box) test, memory (Example 5); assay type: in vivo
Method: FIG. 5 illustrates the effects of TET on mouse avoidance test. C57BL/6J mice were trained to move in the shuttle box when a sound was present. After 10 days of training, the latency of their avoidance test was recored and compared between the control (0) and drug-treated groups. Data are shown as means+/−S.E.M.
TET effects on memory were evaluated in mice with a rodent avoidance system, which consisted of two compartments of equal size (12.5 cm×20 cm×20 cm) that were connected by a door. Infrared LEDs were used to monitor rodent movement in each compartment. Sound cues were delivered via piezo tweeters in the ceiling of the compartments. Animals were trained to move from one compartment to the other upon presentation of the sound. […] The trials and responses were collected. Behavioral responses of mice with or without TET injection were measured after injection (FIG. 5). […] Again, one time administration of TET at 120 mg/kg had no significant toxic effects on memory in mice.

[3] = system: CBA/CaJ mice; assay: Accelerating rotarod test, motor coordination after single injection (Example 3); assay type: in vivo; settings: 1 and 3 h after injection
Method: FIG. 3 illustrates the effects of TET on mouse rotarod performance test. CBA/CaJ mice were tested before TET treatment (baseline) and one and three hours (1 h, 3 h) after TET treatment (i.p.). The latency to fall were shown as mean+/−S.E.M.
TET effects on motor coordination were evaluated on the accelerating rotarod test. the rotating speed was increased with an acceleration rate of 10 rpm/min. The length of time that each animal was able to stay on the rod was recorded as the latency to fall. TET was dissolved in 0.1 N HCl at a concentration of 50 mg/ml, and the pH was adjusted to 6.8-7.0 before diluted in saline. Mice were injected intraperitoneally (i.p.) with saline (baseline) or different TET dosages. Rotarod performance was evaluated at 1 and 3 h after injection (FIG. 3). […] No significant gender effect was detected at either time point (p>0.1).

[4] = higher dosages; abdominal distension, diarrhea, dry eye, itching, hyperpigmentation, mildly elevated liver enzymes; resolve after discontinuance; cited from earlier work
[5] = system: CBA/CaJ mice; assay: Accelerating rotarod, chronic TET use (Example 1); assay type: in vivo; settings: 120 mg/kg i.p. for five days, two-month old mice, two-way ANOVA p>0.05
Method: CBA/CaJ mice were purchased from The Jackson Laboratory. One to five mice were housed per cage with food and water available in a noise-controlled environment on a 12-hr light/dark cycle with light onset at 6:00 a.m. TET was obtained from Sigma Chemical Co. (St. Louis, Mo.). The drug solution was injected (i.p.) for the treated groups. Control mice were given saline injection only. The amount of water/food intake was monitored daily and body weight was monitored weekly. Drug neurotoxic effects on sensory motor coordination were assessed on two-month old CBA/CaJ mice using the accelerating rotarod method. Mice were trained on the task for 5 days in order to achieve stable performance before either being treated by intraperitoneal (i.p.) injections with TET at 120 mg/kg body weight (n=5) or saline (n=6).

[6] = system: CBA/CaJ mice; assay: Prepulse inhibition (PPI), sensory gating (Example 4); assay type: in vivo
Method: TET effects on sensory gating were evaluated using a prepulse inhibition (PPI) procedure. Mice were placed in a plastic restrainer situated on a plate with a pressure sensor. Any animal motion was detected by the sensor which measured its amplitude. TET at various dosages was injected (i. p.) 1 h before the test. For this study, CBA/CaJ mice were divided into four groups: control with saline injection only (n=6; 2 males), TET at 30 mg/kg (n=6; 3 males), 60 mg/kg (n=10; 5 males) and 120 mg/kg (n=6; 2 males). For all groups, the ratio between the PPI and startle amplitude was measured (FIG. 4). […] Thus, TET at 120 mg/kg has no toxic effects on sensory gating in the CBA/CaJ mouse.

[7] = system: CBA/CaJ mice; assay: NIHL, white noise 110 dB SPL 30 min, ABR TTS, repeated TET (Example 6); assay type: in vivo; settings: 120 mg/kg two days before and three days after noise
Text: The average TTS across all test frequencies was 69.7 dB for the control group, 62.9 dB for the TET-treated group (about 6.8 dB of protection).

[8] = system: mice; assay: Noise-induced tinnitus model, SBAD Go/No-Go (Example 12); assay type: in vivo
Text: The SBAD method with Go/No-Go paradigm was used for behavioral test in mice. For “Go” trial animals were trained to move from one compartment to another upon presentation of a sound. For “No-Go” trial animals were trained to stay in the compartment. Otherwise they received a shock. “Go” paradigm was used to monitor motor, motivation, and memory functions while “No-Go” was used to detect tinnitus-like behavior. One ear was exposed to a 120 dB noise (4-25 kHz) for two hours for this noise-induced tinnitus model. DPOAE and ABR were measured to monitor possible hearing loss in each ear 2 weeks after noise exposure. SBAD measurements were made 2, 4, and 8 weeks after noise exposure, and also after TET (0, 30, 60, 90 mg/kg) injection.

[9] = system: CBA/CaJ mice; assay: Early noise-induced accelerated ARHL model, ABR thresholds (Example 2); assay type: in vivo; settings: three months after noise exposure (4-25 kHz, 110 dB SPL, 30 min); TET three days before and two days after exposure
Method: Currently, no FDA-approved medications against ARHL are available. Two-month old CBA/CaJ mice were exposed to octave band (4-25 kHz) noise at 110 dB SPL for 30 minutes. This is a well-established noise model for our drug screenings since the noise exposure leads to dramatic acute and permanent hearing threshold shifts 24 hours and two weeks post-exposure respectively. In addition, apparently accelerated age-related increase in the auditory brainstem response (ABR) thresholds were observed three months after the noise exposure in the control group (n=6), up to approximately 50 dB at 40 kHz. Mice treated with TET (n=5) three days before and two days after the noise exposure had only about an increase of 10 dB at 40 kHz three months after exposure (FIG. 2). […] Thus, TET treatment at a young age could prevent accelerated age-related hearing loss due to early noise exposure.

[10] = rats, cited from earlier work
[11] = single oral administration 50 mg/kg

SMILES: COc1ccc2cc1Oc1ccc(cc1)C[C@H]1c3cc(c(OC)cc3CCN1C)Oc1c(OC)c(OC)cc3c1[C@H](C2)N(C)CC3 [TET, tetrandrine]
- "Go" testing (motor, motivation, memory functions) [1]: No significant changes
- avoidance test latency to cross vs control ([2]; 60 mg/kg): No significant difference
- avoidance test latency to cross vs control ([2]; 120 mg/kg): No significant difference
- avoidance test latency to cross vs control ([2]; 180 mg/kg, one-tailed t-test p<0.05): significant increase
- rotarod performance (latency to fall) vs baseline ([3]; 60 mg/kg i.p.): no significant side effects
- rotarod performance (latency to fall) vs baseline ([3]; 120 mg/kg i.p.): no significant side effects
- side effects in patients [4]: limited side effects
- rotarod latency to fall vs control [5]: not significantly different
- ratio between PPI and startle amplitude, pre- vs post-treatment ([6]; 30 mg/kg i.p. 1 h before test): No significant differences
- ratio between PPI and startle amplitude, pre- vs post-treatment ([6]; 60 mg/kg i.p. 1 h before test): No significant differences
- ratio between PPI and startle amplitude, pre- vs post-treatment ([6]; 120 mg/kg i.p. 1 h before test): No significant differences
- protection (TTS difference to control) [7]: about 6.8 dB
- average TTS across all test frequencies ([7]; 24 hours after exposure, four month-old mice (control 69.7 dB)): 62.9 dB
- "Go" trials (motor, motivation, memory functions) [8]: No significant changes
- increase of ABR threshold at 40 kHz [9]: ~10 dB
- drug elimination from plasma ([10]; between 12.5 to 25 mg/kg): consistent with linear kinetics
- area under the curve (AUC) [10, 11]: 6.2792 ± 2.4115 µg·h/mL
- half time (T½) [10, 11]: 20.6 ± 3.7 h
- drug concentration-curve model [10]: fits well with a two-compartment open model
